The numbers were not newly measured in patent US7044945B2, “Prevention of regression in thermal ciliary muscle tendinoplasty” (priority 2001, dated 2006), which cites them from elsewhere.

Data set [1] deals with healing wound.
For data set [2] the following is noted: in mammals.

For `CCN=C=NCCCN(C)C.Cl` [1-ethyl-1-3 (3-dimethylaminopropyl) carbodiimide hydrochloride], the “tensile strength of the wounds” value in data set [1] (compared with controls) is on record as “sizable increase”. Also, the “thermal shrinkage temperature of individual collagen fibers from the wounds” value in data set [1] (treated wounds compared to comparable controls) is recorded as “increased”.
With `OCC(O)CO` [glycerol], the “solubility in water and alcohol” value is on record as “completely soluble”. Besides, the toxicity entry in data set [2] is “very low toxicity”.
